# Assay results reported in patent US20260200893A1, “INHIBITORS OF PROCASPASE-6 ACTIVATION AND USES THEREOF” (THE REGENTS OF THE UNIVERSITY OF CALIFORNIA, priority 2022, published 2026).
# pKd: −log10 of the molar value.
# Biological target: T1, procaspase-6 (Homo sapiens, UniProt P55212)
# T1 sequence (P55212 1-293): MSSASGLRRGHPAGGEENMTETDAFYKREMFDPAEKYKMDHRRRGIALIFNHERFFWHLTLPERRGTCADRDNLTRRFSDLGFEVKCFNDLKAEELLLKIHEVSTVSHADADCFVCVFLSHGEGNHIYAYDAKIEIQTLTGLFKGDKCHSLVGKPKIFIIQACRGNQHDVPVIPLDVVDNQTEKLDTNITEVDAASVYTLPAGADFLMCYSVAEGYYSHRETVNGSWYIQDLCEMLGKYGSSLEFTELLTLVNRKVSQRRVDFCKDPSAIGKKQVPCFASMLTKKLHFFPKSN
# Experiment: SPR binding affinity for procaspase-6 (avi-tagged, biotinylated construct on neutravidin chip, Biacore 8K)
# Conditions: binding affinities for procaspase-6, SPR
# Excerpt: We used SPR to assess the binding affinity of test compounds, using an avi-tagged (biotinylated) procaspase-6 construct that was captured onto a neutravidin-coated sensor chip in a Biacore 8K instrument. […] The average of the triplicate KD values for each analog was furthermore used to calculate the experimental binding energies (ΔG) provided in the figures that follow.
row,SMILES,pKd
1,c1ccc(-c2cccnc2NCc2cccc3cc[nH]c23)nc1 [ELG-000463],4.00 to 4.30
2,"c1ccc(-c2cccnc2NCc2cccc3ccoc23)nc1 [ELG-000468, N-(benzofuran-7-ylmethyl)-[2,3′-bipyridin]-2′-amine]",4.00 to 4.30
3,"Fc1ccc(CNc2ncccc2-c2ccccn2)c2occc12 [ELG-000469, N-((4-fluorobenzofuran-7-yl)methyl)-[2,3′-bipyridin]-2′-amine]",4.00 to 4.30
4,"c1ccc(-c2cccnc2NCc2cccc3cn[nH]c23)nc1 [ELG-000472, N-((1H-indazol-7-yl)methyl)-[2,3′-bipyridin]-2′-amine]",4.00 to 4.30
5,"Fc1ccc(CNc2ncccc2-c2cccnn2)c2occc12 [ELG-000481, N-((4-fluorobenzofuran-7-yl)methyl)-3-(pyridazin-3-yl)pyridin-2-amine]",4.30 to 5.00
6,Fc1ccc(CNc2ncccc2-c2ccccn2)c2[nH]ccc12 [ELG-000483],4.00 to 4.30
7,"c1cnnc(-c2cccnc2NCc2cccc3ccoc23)c1 [ELG-000488, N-(benzofuran-7-ylmethyl)-3-(pyridazin-3-yl) pyridin-2-amine]",4.30 to 5.00
8,"c1cnnc(-c2cccnc2NCc2cccc3ocnc23)c1 [ELG-000491, N-(benzo[d]oxazol-4-ylmethyl)-3-(pyridazin-3-yl)pyridin-2-amine]",> 5.00
9,c1ccc(-c2cccnc2NCc2cccc3ocnc23)nc1 [ELG-000497],4.00 to 4.30
10,"Fc1ccc(CNc2ncccc2-c2ccccn2)c2[nH]ncc12 [ELG-000499, N-((4-fluoro-1H-indazol-7-yl)methyl)-[2,3′-bipyridin]-2′-amine]",> 5.00
11,"c1cnnc(-c2cccnc2NCc2cccc3ccsc23)c1 [ELG-000502, N-(benzo[b]thiophen-7-ylmethyl)-3-(pyridazin-3-yl)pyridin-2-amine]",4.30 to 5.00
12,"Fc1ccc(CNc2ncccc2-c2cccnn2)c2[nH]ccc12 [ELG-000504, N-((4-fluoro-1H-indol-7-yl)methyl)-3-(pyridazin-3-yl)pyridin-2-amine]",> 5.00
13,"Fc1ccc(CNc2ncccc2-c2cccnn2)c2[nH]ncc12 [ELG-000506, N-((4-fluoro-1H-indazol-7-yl)methyl)-3-(pyridazin-3-yl)pyridin-2-amine]",> 5.00
14,"c1cnnc(-c2cccnc2NCc2cccc3scnc23)c1 [ELG-000507, N-(benzo[d]thiazol-4-ylmethyl)-3-(pyridazin-3-yl)pyridin-2-amine]",> 5.00
15,"c1ccc(-c2cccnc2NCc2cccc3ccsc23)nc1 [ELG-000510, N-(benzo[b]thiophen-7-ylmethyl)-[2,3′-bipyridin]-2′-amine]",4.00 to 4.30
16,c1ccc(-c2cccnc2NCc2cccc3scnc23)nc1 [ELG-000511],4.00 to 4.30
17,"Fc1ccc(CNc2ncccc2-c2cccnn2)c2sccc12 [ELG-000515, N-((4-fluorobenzo[b]thiophen-7-yl)methyl)-3-(pyridazin-3-yl)pyridin-2-amine]",> 5.00
18,Fc1ccc(CNc2ncccc2-c2ccccn2)c2sccc12 [ELG-000518],4.00 to 4.30
19,"Fc1ccc(CNc2ncccc2-c2cccnn2)c2ncsc12 [ELG-000522, N-((7-fluorobenzo[d]thiazol-4-yl)methyl)-3-(pyridazin-3-yl)pyridin-2-amine]",> 5.00

row,SMILES,pKd
1,"c1cnc(NCc2cccc3cc[nH]c23)c(-c2ncc[nH]2)c1 [ELG-000523, N-((1H-indol-7-yl)methyl)-3-(1H-imidazol-2-yl)pyridin-2-amine]",4.30 to 5.00
2,"Fc1ccc(CNc2ncccc2-c2ncc[nH]2)c2[nH]ncc12 [ELG-000525, N-((4-fluoro-1H-indazol-7-yl)methyl)-3-(1H-imidazol-2-yl)pyridin-2-amine]",> 5.00
3,"Fc1ccc(CNc2ncccc2-c2ncc[nH]2)c2ncsc12 [ELG-000526, N-((7-fluorobenzo[d]thiazol-4-yl)methyl)-3-(1H-imidazol-2-yl)pyridin-2-amine]",4.30 to 5.00
4,"Fc1ccc(CNc2ncccc2-c2ncc[nH]2)c2sccc12 [ELG-000530, N-((4-fluorobenzo[b]thiophen-7-yl)methyl)-3-(1H-imidazol-2-yl)pyridin-2-amine]",4.30 to 5.00
5,"c1cnc(NCc2cccc3scnc23)c(-c2ncc[nH]2)c1 [ELG-000531, N-(benzo[d]thiazol-4-ylmethyl)-3-(1H-imidazol-2-yl)pyridin-2-amine]",4.00 to 4.30
6,"Fc1ccc(CNc2ncccc2-c2cccnn2)c2sncc12 [ELG-000532, N-((4-fluorobenzo[d]isothiazol-7-yl)methyl)-3-(pyridazin-3-yl)pyridin-2-amine]",4.30 to 5.00
7,"c1cnc(NCc2cccc3ccsc23)c(-c2ncc[nH]2)c1 [ELG-000534, N-(benzo[b]thiophen-7-ylmethyl)-3-(1H-imidazol-2-yl)pyridin-2-amine]",< 4.00
8,c1cnc(NCc2cccc3ccoc23)c(-c2ncc[nH]2)c1 [ELG-000535],4.00 to 4.30
9,"Fc1ccc(CNc2ncccc2-c2ncc[nH]2)c2[nH]ccc12 [ELG-000536, N-((4-fluoro-1H-indol-7-yl)methyl)-3-(1H-imidazol-2-yl)pyridine-2-amine]",4.30 to 5.00
10,"c1cnc(NCc2cccc3ocnc23)c(-c2ncc[nH]2)c1 [ELG-000537, N-(benzo[d]oxazol-4-ylmethyl)-3-(1H-imidazol-2-yl)pyridin-2-amine]",4.00 to 4.30
11,"c1cnc(NCc2cccc3cn[nH]c23)c(-c2ncc[nH]2)c1 [ELG-000538, N-((1H-indazol-7-yl)methyl)-3-(1H-imidazol-2-yl)pyridin-2-amine]",4.30 to 5.00
12,Fc1ccc(CNc2ncccc2-c2ncc[nH]2)c2sncc12 [ELG-000548],4.00 to 4.30
13,"Fc1ccc(CNc2ncccc2-c2ccccn2)c2sncc12 [ELG-000549, N-((4-fluorobenzo[d]isothiazol-7-yl)methyl)-[2,3′-bipyridin]-2′-amine]",< 4.00
14,"c1ccc(-c2cccnc2NCc2cccc3cnsc23)nc1 [ELG-000552, N-(benzo[d]isothiazol-7-ylmethyl)-[2,3′-bipyridin]-2′-amine]",4.00 to 4.30
15,c1cnc(NCc2cccc3cnsc23)c(-c2ncc[nH]2)c1 [ELG-000558],4.00 to 4.30
16,c1cnnc(-c2cccnc2NCc2cccc3cnsc23)c1 [ELG-000559],4.00 to 4.30
17,"c1cnc(NCc2cccc3cnoc23)c(-c2ncc[nH]2)c1 [ELG-000560, N-(benzo[d]isoxazol-7-ylmethyl)-3-(1H-imidazol-2-yl)pyridin-2-amine]",4.30 to 5.00
18,c1cnnc(-c2cccnc2NCc2cccc3cnoc23)c1 [ELG-000563],4.00 to 4.30
19,"c1ccc(-c2cccnc2NCc2cccc3cnoc23)nc1 [ELG-000567, N-(benzo[d]isoxazol-7-ylmethyl)-[2,3′-bipyridin]-2′-amine]",4.00 to 4.30
